Our source for the EC50 values is US9511058B2, “Methods for using carboxamide, sulfonamide and amine compounds” (Rigel Pharmaceuticals, Inc., priority 2010, dated 2016).

One assay has as its target AMPK. The assay is described as follows: AMPK activation, enzyme-linked immunosorbent assay. The following applies: compounds of Table 1 (Table 6). It counts as biochemical.
`O=C(NC1CCN(Cc2ccccc2)CC1)c1cc2cc(OC3CCN(Cc4ccc(Cl)cc4)CC3)ccc2o1` [1-72, N-(1-benzylpiperidin-4-yl)-5-(1-(4-chlorobenzyl)piperidin-4-yloxy)benzofuran-2-carboxamide]: the EC50 lay within 100 to 500 nM.
Same read-out and setting: in the case of `O=C(NC1CCN(Cc2cccnc2)CC1)c1cc2ccc(OC3CCN(c4ccc(C(F)(F)F)cc4)CC3)cc2o1` [1-96, N-(1-(pyridin-3-ylmethyl)piperidin-4-yl)-6-(1-(4-(trifluoromethyl)phenyl)piperidin-4-yloxy)benzofuran-2-carboxamide] it was less than 100 nM.
Same read-out and setting: next, `O=S(=O)(NC1CCN(Cc2ccc(C(F)(F)F)cc2)CC1)c1ccc(OC2CCN(c3ccc(C(F)(F)F)cc3)CC2)nc1` [1-58, N-(1-(4-(trifluoromethyl)benzyl)piperidin-4-yl)-6-(1-(4-(trifluoromethyl)phenyl)piperidin-4-yloxy)pyridine-3-sulfonamide]: less than 100 nM; `O=C(NC1CCN(Cc2ccc(F)cc2)CC1)c1ccnc(OC2CCN(c3ccc(C(F)(F)F)cc3)CC2)c1` [1-22, N-(1-(4-fluorobenzyl)piperidin-4-yl)-2-(1-(4-(trifluoromethyl)phenyl)piperidin-4-yloxy)isonicotinamide]: 1000 to 5000 nM; `COC(=O)c1ccc(CN2CCC(NC(=O)c3ccc(OC4CCN(c5ccc(C(F)(F)F)cc5)CC4)nc3)CC2)cc1` [1-45, methyl 4-((4-(6-(1-(4-(trifluoromethyl)phenyl)piperidin-4-yloxy)nicotinamido)piperidin-1-yl)methyl)benzoate]: more than 10000 nM.
The same measure, in the same setting: in the case of `N#Cc1ccc(CN2CCC(NC(=O)c3cncc(OC4CCN(c5ccc(C(F)(F)F)cc5)CC4)c3)CC2)cc1` [1-17, N-(1-(4-cyanobenzyl)piperidin-4-yl)-5-(1-(4-(trifluoromethyl)phenyl)piperidin-4-yloxy)nicotinamide] it was less than 100 nM; in that of `O=C(NC1CCN(Cc2ccccn2)CC1)c1sc2cc(OC3CCN(c4ccc(C(F)(F)F)cc4)CC3)ccc2c1Cl` [1-153, 3-chloro-N-(1-(pyridin-2-ylmethyl)piperidin-4-yl)-6-(1-(4-(trifluoromethyl)phenyl)piperidin-4-yloxy)benzo[b]thiophene-2-carboxamide], 100 to 500 nM.
As to `O=C(NC1CCN(Cc2cn(C(c3ccccc3)(c3ccccc3)c3ccccc3)cn2)CC1)c1ccc(OC2CCN(c3ccc(C(F)(F)F)cc3)CC2)cn1` [1-47, 5-(1-(4-(trifluoromethyl)phenyl)piperidin-4-yloxy)-N-(1-((1-trityl-1H-imidazol-4-yl)methyl)piperidin-4-yl)picolinamide], the EC50 lay in the range of 1000 to 5000 nM.
Take `O=C(NC1CCN(Cc2ccc(C(F)(F)F)cc2)CC1)c1cc2ccc(OC3CCN(c4ccc(C(F)(F)F)cc4)CC3)cc2o1` [1-99, N-(1-(4-(trifluoromethyl)benzyl)piperidin-4-yl)-6-(1-(4-(trifluoromethyl)phenyl)piperidin-4-yloxy)benzofuran-2-carboxamide]: the EC50 was less than 100 nM.
The same measure, in the same setting: in the case of `O=C(NC1CCN(Cc2ccc(F)cc2)CC1)c1cc2ccc(OC3CCN(c4ccc(C(F)(F)F)cc4)CC3)cc2o1` [1-91, N-(1-(4-fluorobenzyl)piperidin-4-yl)-6-(1-(4-(trifluoromethyl)phenyl)piperidin-4-yloxy)benzofuran-2-carboxamide] it was more than 10000 nM; in that of `O=C(N[C@@H]1CCN(Cc2ccncc2)C1)c1ccc(OC2CCN(c3ccc(C(F)(F)F)cc3)CC2)cn1` [1-25, (R)-N-(1-(pyridin-4-ylmethyl)pyrrolidin-3-yl)-5-(1-(4-(trifluoromethyl)phenyl)piperidin-4-yloxy)picolinamide], 100 to 500 nM; in that of `N#Cc1ccccc1CN1CCC(NC(=O)c2cc3ccc(OC4CCN(c5ccc(OC(F)(F)F)cc5)CC4)cc3o2)CC1` [1-97, N-(1-(2-cyanobenzyl)piperidin-4-yl)-6-(1-(4-(trifluoromethoxy)phenyl)piperidin-4-yloxy)benzofuran-2-carboxamide], less than 100 nM.
On the same count and under the same terms, next, `O=C(NC1CCN(Cc2cccnc2)CC1)c1cc2ccc(OC3CCN(c4ccc(OC(F)(F)F)cc4)CC3)cc2o1` [1-95, N-(1-(pyridin-3-ylmethyl)piperidin-4-yl)-6-(1-(4-(trifluoromethoxy)phenyl)piperidin-4-yloxy)benzofuran-2-carboxamide]: less than 100 nM; `N#Cc1ccc(CN2CCC(NC(=O)c3cc4ccc(OC5CCN(c6ccc(C(F)(F)F)cc6)CC5)cc4s3)CC2)cc1` [1-144, N-(1-(4-cyanobenzyl)piperidin-4-yl)-6-(1-(4-(trifluoromethyl)phenyl)piperidin-4-yloxy)benzo[b]thiophene-2-carboxamide]: less than 100 nM.
Still for that read-out and setting: in the case of `O=C(NC1CN(Cc2ccncc2)C1)c1ccc(OC2CCN(c3ccc(C(F)(F)F)cc3)CC2)cn1` [1-42, N-(1-(pyridin-4-ylmethyl)azetidin-3-yl)-5-(1-(4-(trifluoromethyl)phenyl)piperidin-4-yloxy)picolinamide] it was 1000 to 5000 nM.
`N#Cc1ccc(CN2CCC(NC(=O)c3sc4cc(OC5CCN(c6ccc(C(F)(F)F)cc6)CC5)ccc4c3Cl)CC2)cc1` [1-154, 3-chloro-N-(1-(4-cyanobenzyl)piperidin-4-yl)-6-(1-(4-(trifluoromethyl)phenyl)piperidin-4-yloxy)benzo[b]thiophene-2-carboxamide] had an EC50 of less than 100 nM.

The same assay, now with this note: compounds of Table 2 (Table 7).
Molecule `O=C(NC1CCN(C(=O)Nc2ccc(C(F)(F)F)cc2)CC1)c1ccc2[nH]c3c(c2c1)CN(Cc1ccc(C(F)(F)F)cc1)CC3` [2-33, 2-(4-(trifluoromethyl)benzyl)-N-(1-(4-(trifluoromethyl)phenylcarbamoyl)piperidin-4-yl)-2,3,4,5-tetrahydro-1H-pyrido[4,3-b]indole-8-carboxamide] registered a concentration giving a half-maximal response (EC50) of 1000 to 5000 nM.
On the same count and under the same terms, in the case of `O=C(NC1CCN(S(=O)(=O)c2ccc(F)cc2)CC1)c1ccc2[nH]c3c(c2c1)CN(c1ccc(F)cc1)CC3` [2-35, 2-(4-fluorophenyl)-N-(1-(4-fluorophenylsulfonyl)piperidin-4-yl)-2,3,4,5-tetrahydro-1H-pyrido[4,3-b]indole-8-carboxamide] it was 10000 to 50000 nM.
With `O=C(NC1CCN(Cc2cccnc2)CC1)c1ccc2[nH]c3c(c2c1)CN(c1ccc(F)cc1)CC3` [2-36, 2-(4-fluorophenyl)-N-(1-(pyridin-3-ylmethyl)piperidin-4-yl)-2,3,4,5-tetrahydro-1H-pyrido [4,3-b]indole-8-carboxamide], the EC50 was more than 100000 nM.
Molecule `Cn1c2c(c3cc(C(=O)NC4CCN(Cc5cccnc5)CC4)ccc31)CN(Cc1ccc(C(F)(F)F)cc1)CC2` [2-18, 5-methyl-N-(1-(pyridin-3-ylmethyl)piperidin-4-yl)-2-(4-(trifluoromethyl)benzyl)-2,3,4,5-tetrahydro-1H-pyrido[4,3-b]indole-8-carboxamide] came in with a concentration giving a half-maximal response (EC50) of 1000 to 5000 nM.

Still in this assay, the particulars now being: compounds of Table 3 (Table 8).
`CC(C)(C)OC(=O)N1CCC(NC(=O)c2cnc(OC3CCN(c4ccc(C(F)(F)F)cc4)CC3)cn2)CC1` [3-19, tert-butyl 4-(5-(1-(4-(trifluoromethyl)phenyl)piperidin-4-yloxy)pyrazine-2-carboxamido)piperidine-1-carboxylate] gave an EC50 of 1000 to 10000 nM.

The same assay, now with this note: compounds of Table 4 (Table 9).
Regarding `N#Cc1ccc(CN2CCC(NC(=O)c3ccc(C(=O)N4CCN(Cc5ccc(C(F)(F)F)cc5)CC4)cn3)CC2)cc1` [4-3, N-(1-(4-cyanobenzyl)piperidin-4-yl)-5-(4-(4-(trifluoromethyl)benzyl)piperazine-1-carbonyl)picolinamide], the 50% effective concentration (EC50) was less than 500 nM.

The assay is the same for the next values; noted with them: compounds of Table 5 (Table 10).
`CC(C)(C)OC(=O)N1CCC(NC(=O)c2ccc(OC3CCN(Cc4ccc(C#N)cc4)CC3)cc2)CC1` [5-78, tert-butyl 4-(4-(1-(4-cyanobenzyl)piperidin-4-yloxy)benzamido)piperidine-1-carboxylate] gave a half-maximal effective concentration (EC50) of less than 1000 nM.
Same read-out and setting: next, `N#Cc1ccc(N2CCC(Oc3ccc(C(=O)NC4CCN(Cc5ccccc5)CC4)c(Cl)c3)CC2)cc1` [5-49, N-(1-benzylpiperidin-4-yl)-2-chloro-4-(1-(4-cyanophenyl)piperidin-4-yloxy)benzamide]: less than 1000 nM.
The molecule `CC(C)S(=O)(=O)N1CCC(NC(=O)c2ccc(OC3CCN(c4ccc(C(F)(F)F)cc4)CC3)c(F)c2)CC1` [5-34, 3-fluoro-N-(1-(isopropylsulfonyl)piperidin-4-yl)-4-(1-(4-(trifluoromethyl)phenyl)piperidin-4-yloxy)benzamide] came in with a 50% effective concentration (EC50) of less than 1000 nM.
With `O=C(NC1CCN(Cc2ccccc2)CC1)c1ccc(OC2CCN(c3ccco3)CC2)c(Cl)c1` [5-11, N-(1-benzylpiperidin-4-yl)-3-chloro-4-(1-(furan-2-yl)piperidin-4-yloxy)benzamide], the EC50 was 1000 to 10000 nM.
The molecule `O=C(NC1CCN(Cc2ccccc2)CC1)c1ccc(OC2CCN(Cc3ccc(Cl)cc3)CC2)c(F)c1` [5-64, N-(1-benzylpiperidin-4-yl)-4-(1-(4-chlorobenzyl)piperidin-4-yloxy)-3-fluorobenzamide] showed a 50% effective concentration (EC50) of less than 1000 nM.
In the case of `COc1cc(C(=O)NCCCNC(=O)OC(C)(C)C)ccc1OC1CCN(Cc2ccc(C(F)(F)F)cc2)CC1` [5-94, tert-butyl 3-(3-methoxy-4-(1-(4-(trifluoromethyl)benzyl)piperidin-4-yloxy)benzamido)propylcarbamate], the 50% effective concentration (EC50) was less than 1000 nM.
On the same count and under the same terms, in the case of `CC(C)(C)OC(=O)N1CCC(Oc2ccc(C(=O)NC3CCN(Cc4ccccc4)CC3)cc2F)CC1` [5-92, tert-butyl 4-(4-(1-benzylpiperidin-4-ylcarbamoyl)-2-fluorophenoxy)piperidine-1-carboxylate] it was 1000 to 10000 nM.
Still for that read-out and setting: next, `O=C(NC1CCN(Cc2ccccc2)CC1)c1ccc(OC2CCN(Cc3ccccc3C(F)(F)F)CC2)c(Cl)c1` [5-24, N-(1-benzylpiperidin-4-yl)-3-chloro-4-(1-(2-(trifluoromethyl)benzyl)piperidin-4-yloxy)benzamide]: 10000 to 20000 nM.
On the same count and under the same terms, in the case of `O=C(NC1CCN(Cc2ccccc2)CC1)c1ccc(OC2CCN(Cc3ccc4c(c3)OCCO4)CC2)c(Cl)c1` [5-15, N-(1-benzylpiperidin-4-yl)-3-chloro-4-(1-((2,3-dihydrobenzo[b][1,4]dioxin-6-yl)methyl)piperidin-4-yloxy)benzamide] it was less than 1000 nM; in that of `O=C(NC1CCN(Cc2ccccc2)CC1)c1ccc(OC2CCN(Cc3ccc(Cl)cc3)CC2)c(Cl)c1` [5-65, N-(1-benzylpiperidin-4-yl)-3-chloro-4-(1-(4-chlorobenzyl)piperidin-4-yloxy)benzamide], less than 1000 nM.
